{"source": "patent US11458123B2", "about": "(Arvinas, Inc., priority 2016, dated 2022)", "data": [{"test_system": "tau protein", "assay": "Tau protein in vitro degradation assay (Western blot, Tau-13 antibody)", "format": "cell-based, human", "settings": "SK-N-SH cells; 72 hours of incubation; tested at 300 nM, 100 nM, 33 nM and 11 nM; Western blot, Tau-13 antibody", "method": "(§1) Tau Protein In Vitro Degradation Assay\n(§2) To determine effect of PROTACs on tau protein degradation SK-N-SH cells were seeded in a 24-well tissue culture-treated plate for at least 18-hours prior to compound addition. Tau PROTACs were evaluated for tau degradation by lysing the cells in lysis buffer with protease inhibitors following a 72-hour incubation with tau PROTACs at 1000 nM, 300 nM and 100 nM for Table 1 and 300 nM, 100 nM, 33 nM and 11 nM for Table 2. Cell lysates were run on standard SDS-PAGE gels, and tau levels were detected by Western blotting using Tau-13 antibody from Abcam (Cambridge, UK) that binds to all forms of human tau.", "values": [{"smiles": "Cn1c2ccncc2c2ccc(-c3ccc(N4CC(OCCCCCOCCCCCOc5ccc6c(c5)C(=O)N(C5CCC(=O)NC5=O)C6=O)C4)nc3)cc21", "note": "(centres unmarked) [Compound 115, 2-(2,6-dioxopiperidin-3-yl)-5-((5-((5-((1-(5-(5-methyl-5H-pyrido[4,3-b]indol-7-yl)pyridin-2-yl)azetidin-3-yl)oxy)pentyl)oxy)pentyl)oxy)isoindoline-1,3-dione]", "Degradation activity* (highest amount of degradation observed at any dosage; tau protein remaining)": "C (>80% tau protein remaining after 72 hours of incubation with the test compound)"}, {"smiles": "O=C1CCC(N2C(=O)c3ccc(OCCCCCOCCN4CCN(CCCc5ccc(-c6ccc7c(c6)[nH]c6ccncc67)cn5)CC4)cc3C2=O)C(=O)N1", "note": "(centres unmarked) [Compound 58, 5-((5-(2-(4-(3-(5-(5H-pyrido[4,3-b]indol-7-yl)pyridin-2-yl)propyl)piperazin-1-yl)ethoxy)pentyl)oxy)-2-(2,6-dioxopiperidin-3-yl)isoindoline-1,3-dione]", "Degradation activity* (highest amount of degradation observed at any dosage; tau protein remaining)": "C (>80% tau protein remaining after 72 hours of incubation with the test compound)"}, {"smiles": "Cn1c2ccncc2c2ccc(-c3ccc(OCCCCOCCCCN4CC5(CC(Oc6ccc7c(c6)C(=O)N(C6CCC(=O)NC6=O)C7=O)C5)C4)nc3)cc21", "note": "(centres unmarked) [Compound 116, 2-(2,6-dioxopiperidin-3-yl)-5-((2-(4-(4-((5-(5-methyl-5H-pyrido[4,3-b]indol-7-yl)pyridin-2-yl)oxy)butoxy)butyl)-2-azaspiro[3.3]heptan-6-yl)oxy)isoindoline-1,3-dione]", "Degradation activity* (highest amount of degradation observed at any dosage; tau protein remaining)": "C (>80% tau protein remaining after 72 hours of incubation with the test compound)"}, {"smiles": "Cn1c2ccncc2c2ccc(-c3ccc(OC4CN(CCCCCOCCCCCOc5ccc6c(c5)C(=O)N(C5CCC(=O)NC5=O)C6=O)C4)nc3)cc21", "note": "(centres unmarked) [Compound 106, 2-(2,6-dioxopiperidin-3-yl)-5-((5-((5-(3-((5-(5-methyl-5H-pyrido[4,3-b]indol-7-yl)pyridin-2-yl)oxy)azetidin-1-yl)pentyl)oxy)pentyl)oxy)isoindoline-1,3-dione]", "Degradation activity* (highest amount of degradation observed at any dosage; tau protein remaining)": "B (≤80% and >50% tau protein remaining after 72 hours of incubation with the test compound)"}, {"smiles": "Cn1c2ccncc2c2ccc(N3CCN(CCCOCCOCCOCCOCCOc4ccc5c(c4)C(=O)N(C4CCC(=O)NC4=O)C5=O)CC3)cc21", "note": "(centres unmarked) [Compound 210, 2-(2,6-dioxopiperidin-3-yl)-5-((15-(4-(5-methyl-5H-pyrido[4,3-b]indol-7-yl)piperazin-1-yl)-3,6,9,12-tetraoxapentadecyl)oxy)isoindoline-1,3-dione]", "Degradation activity (tau protein remaining; highest amount of degradation observed at any dosage)": "C (>80% tau protein remaining after 72 hours of incubation with the test compound)"}, {"smiles": "Cn1c2ccncc2c2ccc(-c3ccc(O[C@H]4C[C@H](Oc5ccc(C#CCCCCOc6ccc7c(c6)C(=O)N(C6CCC(=O)NC6=O)C7=O)nn5)C4)nc3)cc21", "note": "(some centres unmarked) [Compound 134, 2-(2,6-dioxopiperidin-3-yl)-5-((6-(6-((1r,3r)-3-((5-(5-methyl-5H-pyrido[4,3-b]indol-7-yl)pyridin-2-yl)oxy)cyclobutoxy)pyridazin-3-yl)hex-5-yn-1-yl)oxy)isoindoline-1,3-dione]", "Degradation activity* (highest amount of degradation observed at any dosage; tau protein remaining)": "B (≤80% and >50% tau protein remaining after 72 hours of incubation with the test compound)"}, {"smiles": "Cn1c2ccncc2c2ccc(-c3ccc(O[C@H]4C[C@H](OCCOCCOC5CN(c6ccc7c(c6)C(=O)N(C6CCC(=O)NC6=O)C7=O)C5)C4)nc3)cc21", "note": "(some centres unmarked) [Compound 163, 2-(2,6-dioxopiperidin-3-yl)-5-(3-(2-(2-((1r,3r)-3-((5-(5-methyl-5H-pyrido[4,3-b]indol-7-yl)pyridin-2-yl)oxy)cyclobutoxy)ethoxy)ethoxy)azetidin-1-yl)isoindoline-1,3-dione]", "Degradation activity* (highest amount of degradation observed at any dosage; tau protein remaining)": "C (>80% tau protein remaining after 72 hours of incubation with the test compound)"}, {"smiles": "O=C1CCC(N2C(=O)c3ccc(OCC#Cc4ccc(O[C@H]5C[C@H](Oc6ccc(-c7ccc8c(c7)[nH]c7ccncc78)cn6)C5)cc4)cc3C2=O)C(=O)N1", "note": "(some centres unmarked) [Compound 189, 5-((3-(4-((1r,3r)-3-((5-(5H-pyrido[4,3-b]indol-7-yl)pyridin-2-yl)oxy)cyclobutoxy)phenyl)prop-2-yn-1-yl)oxy)-2-(2,6-dioxopiperidin-3-yl)isoindoline-1,3-dione]", "Degradation activity (tau protein remaining; highest amount of degradation observed at any dosage)": "B (≤80% and >50% tau protein remaining after 72 hours of incubation with the test compound)"}, {"smiles": "O=C1CCC(N2C(=O)c3ccc(OCCCCCN4CCN(CCCc5ccc(-c6ccc7c(c6)[nH]c6ccncc67)cn5)CC4)cc3C2=O)C(=O)N1", "note": "(centres unmarked) [Compound 54, 5-((5-(4-(3-(5-(5H-pyrido[4,3-b]indol-7-yl)pyridin-2-yl)propyl)piperazin-1-yl)pentyl)oxy)-2-(2,6-dioxopiperidin-3-yl)isoindoline-1,3-dione]", "Degradation activity* (highest amount of degradation observed at any dosage; tau protein remaining)": "C (>80% tau protein remaining after 72 hours of incubation with the test compound)"}, {"smiles": "O=C1CCC(N2C(=O)c3ccc(N4CC(OCC#Cc5ccc(O[C@H]6C[C@H](Oc7ccc(-c8ccc9c(c8)[nH]c8ccncc89)cn7)C6)cn5)C4)cc3C2=O)C(=O)N1", "note": "(some centres unmarked) [Compound 194, 5-(3-((3-(5-((1r,3r)-3-((5-(5H-pyrido[4,3-b]indol-7-yl)pyridin-2-yl)oxy)cyclobutoxy)pyridin-2-yl)prop-2-yn-1-yl)oxy)azetidin-1-yl)-2-(2,6-dioxopiperidin-3-yl)isoindoline-1,3-dione]", "Degradation activity (tau protein remaining; highest amount of degradation observed at any dosage)": "C (>80% tau protein remaining after 72 hours of incubation with the test compound)"}, {"smiles": "O=C1CCC(N2C(=O)c3ccc(OCCCCCN4CCN(CCO[C@H]5C[C@H](Oc6ccc(-c7ccc8c(c7)[nH]c7ccncc78)cn6)C5)CC4)cc3C2=O)C(=O)N1", "note": "(some centres unmarked) [Compound 59, 5-((5-(4-(2-((1r,3r)-3-((5-(5H-pyrido[4,3-b]indol-7-yl)pyridin-2-yl)oxy)cyclobutoxy)ethyl)piperazin-1-yl)pentyl)oxy)-2-(2,6-dioxopiperidin-3-yl)isoindoline-1,3-dione]", "Degradation activity* (highest amount of degradation observed at any dosage; tau protein remaining)": "C (>80% tau protein remaining after 72 hours of incubation with the test compound)"}, {"smiles": "Cc1ncsc1-c1ccc([C@H](C)NC(=O)[C@@H]2C[C@@H](O)CN2C(=O)[C@@H](NC(=O)COCCOCCOCCOCCOCCOCCOc2ccc(-c3ccc4c(c3)[nH]c3ccncc34)cn2)C(C)(C)C)cc1", "note": "[Compound 122, (2S,4R)-1-((S)-23-((5-(5H-pyrido[4,3-b]indol-7-yl)pyridin-2-yl)oxy)-2-(tert-butyl)-4-oxo-6,9,12,15,18,21-hexaoxa-3-azatricosanoyl)-4-hydroxy-N—((S)-1-(4-(4-methylthiazol-5-yl)phenyl)ethyl)pyrrolidine-2-carboxamide]", "Degradation activity* (highest amount of degradation observed at any dosage; tau protein remaining)": "C (>80% tau protein remaining after 72 hours of incubation with the test compound)"}, {"smiles": "Cn1c2ccncc2c2ccc(-c3ccc(O[C@H]4C[C@H](OCCOCCOCC5CN(c6ccc7c(c6)C(=O)N(C6CCC(=O)NC6=O)C7=O)C5)C4)nc3)cc21", "note": "(some centres unmarked) [Compound 192, 2-(2,6-dioxopiperidin-3-yl)-5-(3-((2-(2-((1r,3r)-3-((5-(5-methyl-5H-pyrido[4,3-b]indol-7-yl)pyridin-2-yl)oxy)cyclobutoxy)ethoxy)ethoxy)methyl)azetidin-1-yl)isoindoline-1,3-dione]", "Degradation activity (tau protein remaining; highest amount of degradation observed at any dosage)": "C (>80% tau protein remaining after 72 hours of incubation with the test compound)"}]}, {"test_system": "tau protein", "assay": "Tau protein in vitro degradation assay (Western blot, Tau-13 antibody)", "format": "cell-based, human", "settings": "SK-N-SH cells; 72 hours of incubation; tested at 1000 nM, 300 nM and 100 nM", "method": "as §1, §2", "values": [{"smiles": "Cc1ncoc1-c1ccc([C@H](C)NC(=O)[C@@H]2C[C@@H](O)CN2C(=O)[C@@H](NC(=O)COCCOCCOCCOCC(=O)N2CCN(c3ccn4c(n3)nc3ccccc34)CC2)C(C)(C)C)cc1", "note": "[Compound 22, (2S,4R)-1-((S)-17-(4-(benzo[4,5]imidazo[1,2-a]pyrimidin-2-yl)piperazin-1-yl)-2-(tert-butyl)-4,17-dioxo-6,9,12,15-tetraoxa-3-azaheptadecanoyl)-4-hydroxy-N—((S)-1-(4-(4-methyloxazol-5-yl)phenyl)ethyl)pyrrolidine-2-carboxamide]", "Activity* (highest amount of degradation observed at any dosage, as tau protein remaining)": "C (>80% tau protein remaining after 72 hours of incubation with the test compound)"}, {"smiles": "O=C1CCC(N2C(=O)c3cccc(NCCOCCOCCOc4ccc(-c5ccc6c(c5)[nH]c5ccncc56)cn4)c3C2=O)C(=O)N1", "note": "(centres unmarked) [Compound 3, 4-(2-(2-(2-(5-(5H-pyrido[4,3-b]indol-7-yl)pyridin-2-yloxy)ethoxy)ethoxy)ethylamino)-2-(2,6-dioxopiperidin-3-yl)isoindoline-1,3-dione]", "Activity* (highest amount of degradation observed at any dosage, as tau protein remaining)": "A (≤50% tau protein remaining after 72 hours of incubation with the test compound)"}, {"smiles": "CN(C)c1ccc(-c2ccc3cc(OCC(O)COCCOCCOCCNc4cccc5c4C(=O)N(C4CCC(=O)NC4=O)C5=O)ccc3n2)cc1", "note": "(centres unmarked) [Compound 47, 4-(2-(2-(2-(3-(2-(4-(dimethylamino)phenyl)quinolin-6-yloxy)-2-hydroxypropoxy)ethoxy)ethoxy)ethylamino)-2-(2,6-dioxopiperidin-3-yl)isodoline-1,3-dione]", "Activity* (highest amount of degradation observed at any dosage, as tau protein remaining)": "C (>80% tau protein remaining after 72 hours of incubation with the test compound)"}, {"smiles": "Cc1ncsc1-c1ccc(CNC(=O)[C@@H]2C[C@@H](O)CN2C(=O)[C@@H](NC(=O)COCCOCCOCCOCCCOc2ccc3nc(-c4ccc(N(C)C)cc4)ccc3c2)C(C)(C)C)cc1", "note": "[Compound 9, (2S,4R)-1-((S)-2-tert-butyl-18-(2-(4-(dimethylamino)phenyl)quinolin-6-yloxy)-4-oxo-6,9,12,15-tetraoxa-3-azaoctadecane)-4-hydroxy-N-(4-(4-methylthiazol-5-yl)benzyl)pyrrolidine-2-carboxamide]", "Activity* (highest amount of degradation observed at any dosage, as tau protein remaining)": "C (>80% tau protein remaining after 72 hours of incubation with the test compound)"}]}]}
